Data on four molecules can be found in patent US20240238297A1, “USES AND METHODS FOR RECURRENT PRIMARY CNS NEOPLASMS” (CHIMERIX, INC., priority 2021, published 2024).

Counter-ions that a name gives are not always drawn.

In one series the test system is endometrial cancer. The conditions noted are these: advanced cancer patients; cited from earlier work.
Series [1] relates to diffuse midline glioma, H3 K27M-mutant. As to conditions: patients with DMG H3K27M; cited from earlier work.
The next series concerns high grade gliomas. The conditions noted are these: advanced cancer patients; cited from earlier work.
The nature of series [2]: pharmacokinetics/toxicokinetics in dogs. As to conditions: dog, in vivo.
A short description of series [3]: stability: percentage of impurities after two months. The class given is physicochemical. The method, then: (§1) Dihydrochloride salts of compounds within the class of impiridones of which ONC-206 is a member, achieve unexpected technical effects. […] In addition, after two months at 25° C. and at 40° C., the percentage of impurities in the dihydrochloride salt is not detected and 3%, respectively; while for the free base the corresponding the percentage of impurities is 20% and 24%, respectively. This technical effect appears to extend to the class of impiridones.

A short description of series [4]: solubility in water, ONC-201 dihydrochloride salt vs free base. The class given is physicochemical. The method, then: as §1

In the case of `Cc1ccccc1CN1C(=O)C2=C(CCN(Cc3ccccc3)C2)N2CCN=C12` [ONC201, 7-benzyl-4-(2-methylbenzyl)-2,4,6,7,8,9-hexahydroimidazo[1,2-a]pyrido[3,4-e]pyrimidin-5(1H)-one], in the series on endometrial cancer, the “PFS compared to historical control” value was “several patients experienced prolonged PFS”. Moreover, in series [1], the “tumor response in patients” value is “induced durable tumor regressions”. Besides, the RANO response result with high grade gliomas is recorded as “several patients achieved a RANO response”.
As usually defined, the half-life is how long it takes for the measured level to halve. Read a low half-life as rapid decline. As a reminder, the CL/F is the apparent clearance, not corrected for the fraction that reaches the circulation. The Vd/F is the volume of distribution divided by bioavailability. With `O=C1C2=C(CCN(Cc3ccccc3)C2)N2CCN=C2N1Cc1ccc(F)cc1F` [ONC206, 7-benzyl-4-(2,4-difluorobenzyl)-2,4,6,7,8,9-hexahydroimidazo[1,2-a]pyrido[3,4-e]pyrimidin-5(1H)-one], the half-life in series [2] (beagle) lay in the range of 0.7 to 7.1 h. In series [2] (both, Beagle, po), the CL/F lay in the range of 83.3 to 1680 mL/min/kg, the Vd/F fell in the range of 25.2 to 259 L/kg and the half-life lay in the range of 0.7 to 7.1 h.
Take `Cc1ccccc1CN1C(=O)C2=C(CCN(Cc3ccccc3)C2)N2CCN=C12` [ONC-201 dihydrochloride salt, 7-benzyl-4-(2-methylbenzyl)-2,4,6,7,8,9-hexahydroimidazo[1,2-a]pyrido[3,4-e]pyrimidin-5(1H)-one]: the percentage of impurities entry was “not detected” in series [3] (after two months at 25° C.) and 3% in series [3] (after two months at 40° C.). In addition, the solubility in water result in series [4] was “greater than 50 mg/mL”.
Turning to `Cc1ccccc1CN1C(=O)C2=C(CCN(Cc3ccccc3)C2)N2CCN=C12` [ONC-201 free base, 7-benzyl-4-(2-methylbenzyl)-2,4,6,7,8,9-hexahydroimidazo[1,2-a]pyrido[3,4-e]pyrimidin-5(1H)-one], the figures for the percentage of impurities in series [3] (after two months at 25° C.) and in series [3] (after two months at 40° C.) were 20% and 24%, respectively. Further, the solubility in water entry in series [4] was “less than 1 mg/mL”.
